Test results reported in patent US4389398A, “Amino glycoside antibiotics having antiprotozoal and anthelmintic activity” (priority 1978, dated 1983).
Converted amounts (≈) assume the structure as drawn. Read-outs that look alike come from different tables or passages of the source.

Experiments:
[1] = tested on: Trichomonas vaginalis; test: In vitro activity against Trichomonas vaginalis; type: cell-based; settings: for MIC / MBC: Trichomonas vaginalis; for MIC: read-out: Minimal 99% Suppression Level; for MBC: read-out: Minimal Cidal Level
Text: In Table VI below is set forth the in vitro activity of the compounds of this invention against T. vaginalis. The test procedure used was substantially as described by R. J. Schnitzer on pages 289-331 in Experimental Chemotherapy, Volume 1, Academic Press, New York (1963).

[2] = tested on: Trichomonas vaginalis; settings: at somewhat high dose ranges; cited from earlier work
[3] = tested on: Entamoeba histolytica; settings: Albach et al., Am. J. Trop. Med. Hyg. 15, 885 (1965); cited from earlier work
[4] = tested on: Aerobacter aerogenes; test: In vitro minimal inhibitory concentration, Aerobacter aerogenes; type: cell-based; settings: pH 7.4
Experimental: (§1) In Table III below is set forth the in vitro minimal inhibitory concentration of gentamicin B, gentamicin B1 and gentamicin X all in the free base form against a variety of gram positive and gram negative microorganisms. The experiments were carried out in a yeast beef broth medium at pH 7.4.

[5] = tested on: Bacillus subtilis; test: In vitro minimal inhibitory concentration, Bacillus subtilis; type: cell-based; settings: pH 7.4
Experimental: as §1

[6] = tested on: Escherichia coli; test: In vitro minimal inhibitory concentration, Escherichia coli; type: cell-based; settings: pH 7.4
Experimental: as §1

[7] = tested on: Klebsiella pneumoniae; test: In vitro minimal inhibitory concentration, Klebsiella pneumoniae; type: cell-based; settings: pH 7.4
Experimental: as §1

[8] = tested on: Pseudomonas aeruginosa; test: In vitro minimal inhibitory concentration, Pseudomonas aeruginosa; type: cell-based; settings: pH 7.4
Experimental: as §1

[9] = tested on: Sarcina lutea; test: In vitro minimal inhibitory concentration, Sarcina lutea; type: cell-based; settings: pH 7.4
Experimental: as §1

[10] = tested on: Staphylococcus aureus; test: In vitro minimal inhibitory concentration, Staphylococcus aureus; type: cell-based; settings: pH 7.4
Experimental: as §1

[11] = tested on: Streptococcus pyogenes; test: In vitro minimal inhibitory concentration, Streptococcus pyogenes; type: cell-based; settings: pH 7.4
Experimental: as §1

[12] = tested on: Shigella sp. M324; test: In vitro minimal inhibitory concentration, Shigella sp. M324; type: cell-based; settings: free base; yeast beef broth medium, pH 7.4
Experimental: as §1

[13] = tested on: Staphylococcus aureus Gray; test: Protective activity in mice, Staphylococcus aureus Gray infection; type: in vivo; settings: sc, subcutaneous one hour after infection, survivors at 48 hours, read-out: PD50
Experimental: (§2) Infected non-treated controls die in about 18 to 24 hours. Generally 5-7 dose levels are administered to mice weighing about 20 grams in groups of 7-10.

[14] = tested on: Staphylococcus aureus W; test: Protective activity in mice, Staphylococcus aureus W infection; type: in vivo; settings: sc, subcutaneous one hour after infection, survivors at 48 hours, read-out: PD50
Experimental: as §2

[15] = tested on: Staphylococcus aureus Smith; test: Protective activity in mice, Staphylococcus aureus Smith infection; type: in vivo; settings: sc, subcutaneous one hour after infection, survivors at 48 hours, read-out: PD50
Experimental: as §2

[16] = tested on: Streptococcus pyogenes C; test: Protective activity in mice, Streptococcus pyogenes C infection; type: in vivo; settings: sc, subcutaneous one hour after infection, survivors at 48 hours, read-out: PD50
Experimental: as §2

[17] = tested on: Salmonella paratyphi B; test: Protective activity in mice, Salmonella paratyphi B infection; type: in vivo; settings: Salmonella enterica, sc, subcutaneous one hour after infection, survivors at 48 hours, read-out: PD50
Experimental: as §2

[18] = tested on: Pseudomonas aeruginosa SC; test: Protective activity in mice, Pseudomonas aeruginosa SC infection; type: in vivo; settings: subcutaneous one hour after infection, survivors at 48 hours, read-out: PD50
Experimental: as §2

[19] = in vivo; settings: mouse
Experimental: The acute toxicity of gentamicin B, gentamicin B1 and gentamicin X is determined in male CF-1 (Carworth Farms) mice weighing about 20 grams each.

[20] = tested on: Syphacia obvelata; test: Anthelmintic activity in vivo against Syphacia obvelata in mice; set-up: species or system male Millerton mice
[21] = Chronic toxicity (ataxia) in cats after daily subcutaneous dosing; type: in vivo; settings: in vivo
Text: There appears to be a causal relationship between high doses of amino-glycoside type antibiotics given over an extended period of time and vestibular damage wherein one of the early manifestations is ataxia. […] Moreover, they may be used at such dosages for a time interval substantially beyond that normally required to eliminate infection without causing ataxia; and with minimal, if any, toxic manifestations. Thus, gentamicin B and gentamicin B1 represent a substantial improvement over antibiotics of this class (amino-glycoside) that are currently in use.

[22] = tested on: Entamoeba histolytica; test: Stated activity against Entamoeba histolytica
[23] = tested on: Histomonas meleagridis; test: Stated activity against Histomonas meleagridis
[24] = tested on: Syphacia obvelata; test: Stated anthelmintic activity against pinworms such as Syphacia obvelata
[25] = tested on: Histomonas meleagridis; test: Prophylactic activity in turkeys against Histomonas meleagridis; type: in vivo; settings: turkeys inoculated orally with 500 Heterakis gallinae ova
Experimental: Gentamicin A was administered to groups of turkeys at dosage levels of 5, 10, and 15 mg. per turkey per day in aqueous solution. Two days after the initiation of the drug, the turkeys were inoculated orally with 500 Heterakis gallinae ova (the intermediate host carrier of Histomonas). A single group of turkeys received 0.035% of gentamicin A in their feed for six days. Untreated infected controls were also carried in each experiment. The test is continued for twelve days and the birds are autopsied on the thirteenth day. Infection is usually manifested principally in two areas, the cecum and the liver which are the areas examined during the autopsy.

[26] = tested on: Trichomonas vaginalis; test: Stated activity against Trichomonas vaginalis
[27] = tested on: Trichomonas foetus; test: Stated activity against Trichomonas foetus
[28] = tested on: bacteria; settings: cited from earlier work

With “Gentamicin C [Garamycin®, reference compound]” the “Minimal 99% Suppression Level” value ([1]; 24 hours) was 250 µg/mL, the “Minimal Cidal Level” value ([1]; 24 hours) was greater than 250 µg/mL and the “Minimal 99% Suppression Level” value ([1]; 48 hours) was 100 µg/mL. For the same compound, the “Minimal Cidal Level” value ([1]; 48 hours) was 100 µg/mL, the “activity against T. vaginalis (in words)” value [2] was “only slight activity” and the “activity against E. histolytica (in words)” value [3] was “relatively ineffective”.
`CNC1C(O)C(OC2C(N)CC(N)C(OC3OC(CN)C(O)C(O)C3O)C2O)OCC1(C)O` (stereo not shown) [Gentamicin B] gave an MIC [4] of 0.08 µg/mL (≈ 0.166 µM), an MIC [5] of 0.8 µg/mL (≈ 1.66 µM) and an MIC [6] of 0.03 to 0.3 µg/mL (≈ 0.0622 to 0.622 µM). It also gave an MIC [7] of 3 µg/mL (≈ 6.22 µM), an MIC [8] of 0.03 to 0.08 µg/mL (≈ 0.0622 to 0.166 µM) and an MIC [9] of 0.3 µg/mL (≈ 0.622 µM). It also gave an MIC [10] of 0.3 to 3 µg/mL (≈ 0.622 to 6.22 µM), an MIC [11] of 3 µg/mL (≈ 6.22 µM) and an MIC [12] of 5 µg/mL (≈ 10.4 µM). The ED50 [13] was 20 mg/kg, the ED50 [14] was 50 mg/kg and the ED50 [15] was 5 mg/kg. For the same compound, the ED50 [16] was 15 mg/kg, the ED50 [17] was 5 mg/kg and the ED50 [18] was 2 mg/kg. For the same compound, the LD50 ([19]; ip) was 1750 mg/kg, the LD50 ([19]; iv) was 228 mg/kg and the LD50 ([19]; po) was greater than 250 mg/kg. The LD50 ([19]; sc) was greater than 1500 mg/kg, the MIC ([1]; 24 h) was 25 µg/mL (≈ 51.8 µM) and the MBC ([1]; 24 h) was greater than 250 µg/mL. The MIC ([1]; 48 h) was 25 µg/mL (≈ 51.8 µM), the MBC ([1]; 48 h) was 25 µg/mL (≈ 51.8 µM) and the “% Infected” value ([20]; 8 mg/kg/day, 0.008% in diet) was 67%. For the same compound, the “Mean Worm Burden” value ([20]; 8 mg/kg/day, 0.008% in diet) was 29.5, the “% Infected” value ([20]; 39 mg/kg/day, 0.02% in diet) was 0% and the “Mean Worm Burden” value ([20]; 39 mg/kg/day, 0.02% in diet) was 0. For the same compound, the “% Infected” value ([20]; 100 mg/kg/day, 0.0625% in diet) was 0%, the “Mean Worm Burden” value ([20]; 100 mg/kg/day, 0.0625% in diet) was 0 and the “% Infected” value ([20]; 259 mg/kg/day, 0.25% in diet) was 0%. The “Mean Worm Burden” value ([20]; 259 mg/kg/day, 0.25% in diet) was 0, the minimal effective dose ([20]; Syphacia obvelata, read-out: minimum dosage with anthelmintic activity) was 39 mg/kg/day and the “anthelmintic activity (in words)” value ([20]; male Millerton mice) was “exhibit anthelmintic activity”. The “ataxic potential (in words)” value [21] was “low ataxic potential”, the “period of administration to cause impairment of the "righting reflex" and ataxia (in words)” value [21] was “required substantially longer periods of administration at high doses” and the “antiprotozoal activity (in words)” value [22] was “to a lesser extent”. For the same compound, the “antiprotozoal activity (in words)” value [23] was “to a lesser extent” and the “anthelmintic activity (in words)” value [24] was “effective”.
`CNC1C(O)COC(OC2C(N)CC(N)C(OC3OC(CO)C(O)C(O)C3N)C2O)C1O` (stereo not shown) [Gentamicin A] showed an MIC ([1]; 24 hours) of 10 µg/mL (≈ 21.3 µM), an MBC ([1]; 24 hours) of 25 µg/mL (≈ 53.4 µM) and an MIC ([1]; 48 hours) of 5 to 10 µg/mL (≈ 10.7 to 21.3 µM). For the same compound, the MBC ([1]; 48 hours) was 10 µg/mL (≈ 21.3 µM), the “minimum dosage level with prophylactic activity” value [25] was 10 mg. per bird and the “antiprotozoal activity (in words)” value [26] was “effective”. The “antiprotozoal activity (in words)” value [22] was “effective”, the “antiprotozoal activity (in words)” value [23] was “effective” and the “antiprotozoal activity (in words)” value [27] was “effective”. For the same compound, the “anthelmintic activity (in words)” value [24] was “effective” and the “antibiotic activity (in words)” value [28] was “rather weak antibiotic activity”.
